Read-outs that look alike come from different tables or passages of the source.
Assay: Mitochondrial toxicity (Glu/Gal) assay
Type: cell-based
Settings: for Score: mitotoxicity score, Glu/Gal assay; for Δ IC50, glu/IC50, gal: ratio IC50 glu / IC50 gal
Source text: The compounds of the invention/examples may have advantages associated with in vitro potency, kill kinetics (i.e. bactericidal effect) in vitro, PK properties, food effect, safety/toxicity (including liver toxicity, coagulation, 5-LO oxygenase), metabolic stability, Ames II negativity, MNT negativity, aqueous based solubility (and ability to formulate) and/or cardiovascular effect e.g. on animals (e.g. anesthetized guinea pig). Data that is generated/calculated may be obtained using standard methods/assays, for instance that are available in the literature or which may be performed by a supplier (e.g. Microsomal Stability Assay—Cyprotex, Mitochondrial toxicity (Glu/Gal) assay—Cyprotex, as well as literature CYP cocktail inhibition assays). GSH can be measured (reactive metabolites, glucuronidation) to observe if a dihydrodiol is observed by LCMS (fragmentation ions), which would correspond to a dihydroxylation on the core heterocycle.

[1] = galactose medium (Glu/Gal mitotoxicity assay), read-out: IC50, gal
[2] = glucose medium (Glu/Gal mitotoxicity assay), read-out: IC50, glu

Row | SMILES | IC50 [1] [µM] | IC50 [2] [µM] | Score | Δ IC50, glu/IC50, gal | IC50 (read-out: IC50, gal) [µM] | IC50 (read-out: IC50, glu) [µM]
1 | Cc1cnc2nc(C3CC3)c(C(=O)NCc3ccc(-c4cc5n(n4)CCN(S(C)(=O)=O)C5)cc3)n2c1 [Compound 99] | > 200 | > 200 | – | – | – | –
2 | Cc1cnc2nc(C3CC3)c(C(=O)NCc3ccc(-c4cc5n(n4)CCN(C)C5)cc3)n2c1 [Compound 100] | > 200 | > 200 | – | – | – | –
3 | COCCN1CCn2nc(-c3ccc(CNC(=O)c4c(C5CC5)nc5ncc(C)cn45)cc3)cc2C1 [Compound 101] | > 200 | > 200 | – | – | – | –
4 | Cc1cnc2nc(C3CC3)c(C(=O)NCc3ccc(-c4nn5c(c4C)CN(S(=O)(=O)C(F)(F)F)CC5)cc3)n2c1 [Compound 102] | – | – | [x]3 | >6.69 | 29.9 | > 200
5 | O=C(NCc1ccc(-c2nc3n(n2)CCN(S(=O)(=O)C(F)(F)F)C3)cc1)c1c(C2CC2)nc2ncc(Cl)cn12 [Compound 103] | – | – | [x]0 | >1.3 | 38.6 | > 50
6 | Cc1cnc2nc(C3CC3)c(C(=O)NCc3ccc(-c4cc5n(n4)CCN(CC(F)(F)F)C5)cc3)n2c1 [Compound 107] | – | – | [x]0 | >1.13 | 44.2 | > 50
7 | Cc1cnc2nc(C3CC3)c(C(=O)NCc3ccc(-c4cc5n(n4)CCN(S(=O)(=O)CC(C)C)C5)cc3)n2c1 [Compound 108] | – | – | [x]0 | >1.29 | 38.6 | > 50
8 | COCCS(=O)(=O)N1CCn2nc(-c3ccc(CNC(=O)c4c(C5CC5)nc5ncc(C)cn45)cc3)cc2C1 [Compound 109] | > 50 | > 50 | – | – | – | –
9 | CCc1nc2ncc(C)cn2c1C(=O)NCc1ccc(-c2nc3n(n2)CCN(S(=O)(=O)C(F)(F)F)C3)cc1 [Compound 110] | > 100 | > 100 | – | – | – | –
10 | O=C(NCc1ccc(-c2cn3c(n2)CN(S(=O)(=O)C(F)(F)F)CC3)cc1)c1c(C(F)(F)F)nc2ccccn12 [Compound 115] | – | – | – | >3.08 | 64.8 | > 200
11 | O=C(NCc1ccc(-c2cn3c(n2)CN(S(=O)(=O)C(F)(F)F)CC3)cc1)c1c(C(F)F)nc2ccccn12 [Compound 116] | – | – | [x]3 | >9.96 | 20.1 | > 200
12 | CCc1nc2ccc(Cl)cn2c1C(=O)NCc1ccc(-c2cn3c(n2)CN(S(=O)(=O)C(F)(F)F)CC3)cc1 [Compound 117] | > 50 | > 50 | – | – | – | –
13 | CCc1nc2ccc(Cl)cn2c1C(=O)NCc1ccc(-c2cc3n(n2)CCN(S(=O)(=O)C(F)(F)F)C3)cc1 [Compound 118] | – | – | [x]1 | >1.57 | 127 | > 200
14 | O=C(NCc1ccc(-c2cc3n(n2)CCN(S(=O)(=O)C(F)(F)F)C3)cc1)c1c(C(F)(F)F)nc2ccccn12 [Compound 119] | – | – | [x]1 | >1.54 | 130 | > 200
15 | O=C(NCc1ccc(-c2cc3n(n2)CCN(S(=O)(=O)C(F)(F)F)C3)cc1)c1c(C(F)F)nc2ccccn12 [Compound 120] | – | – | [x]3 | >8.01 | 25 | > 200
16 | Cc1c(-c2ccc(CNC(=O)c3c(C(F)(F)F)nc4ccccn34)cc2)nn2c1CN(S(=O)(=O)C(F)(F)F)CC2 [Compound 121] | – | – | – | >4.31 | 46.4 | > 200
17 | O=C(NCc1ccc(-c2nc3n(n2)CCN(S(=O)(=O)C(F)(F)F)C3)cc1)c1c(C(F)(F)F)nc2ccccn12 [Compound 122] | > 100 | > 100 | – | – | – | –
18 | Cc1cnc2nc(C3CC3)c(C(=O)NCc3cnc(-c4cc5n(n4)CCN(S(=O)(=O)C(F)(F)F)C5)c(F)c3)n2c1 [Compound 125] | > 200 | > 200 | – | – | – | –
19 | CCc1nc2ncc(C)cn2c1C(=O)NCc1ccc(-c2cc3n(n2)CCN(S(=O)(=O)C(F)(F)F)C3)cn1 [Compound 126] | > 200 | > 200 | – | – | – | –
20 | Cc1cnc2nc(C3CC3)c(C(=O)NCc3ccc(-c4cc5n(n4)CCN(S(=O)(=O)C(F)(F)F)C5)nc3)n2c1 [Compound 128] | > 200 | > 200 | – | – | – | –
21 | Cc1cnc2nc(C3CC3)c(C(=O)NCc3cnc(-c4nc5n(n4)CCN(S(=O)(=O)C(F)(F)F)C5)c(F)c3)n2c1 [Compound 130] | > 200 | > 200 | – | – | – | –
22 | CCc1nc2ncc(C)cn2c1C(=O)NCc1cnc(-c2cc3n(n2)CCN(S(=O)(=O)C(F)(F)F)C3)nc1 [Compound 131] | > 100 | > 100 | – | – | – | –

Source: US20240199651A1, “ANTIBACTERIAL COMPOUNDS” (JANSSEN SCIENCES IRELAND UNLIMITED COMPANY, priority 2021, published 2024)
